A short description of data set [1]: FRAP ferric reducing assay. As to conditions: for FRAP: 593 nm. How it is done: The antioxidant power of P. blanda extracts by ferric reduction was done by preparing fresh FRAP reagent from acetate buffer (pH 3.6), a solution of 10 mM TPTZ (2,4,6-tri(2-pyridyl)-s-triazine) in 40 mM HCl and a solution of 20 mM iron (III) chloride in a ratio of 10:1:1 (%v/v) ([Brand-Williams, Cuvelier & Berset, 1995]; [Mohammadzadeh et al., 2007]; [Mothana et al., 2009]; [Salazar-Aranda et al., 2011]), butylated hydroxytoluene (BHT), and ascorbic acid were used as controls. Then, 10 µL of plant extracts, peperomin A, ferrous sulfate (standard) and the controls were added to 300 µL FRAP reagent (triplicate) in the dark and the absorbance was measured at 593 nm. A linear standard curve was constructed using […] FeSO4. The results were represented as the ratio of the concentration of iron(III) mM over the extract dry weight (g).

A short description of data set [2]: DPPH free radical scavenging assay. As to conditions: for DPPH IC50: 30 min, 517 nm. How it is done:
The free radical scavenging activities of the extracts, peperomin A and phytosterol mixture were estimated using the 1,1-diphenyl-2-picryl-hydrazyl (DPPH) assay. Quantitative estimation was done in 96-well ELISA plates in triplicate. Complete of 70 µL of DMSO was brought for each well followed by 100 µL of plant extract solution or isolated tested compounds. Various concentrations of each extract and peperomin A (15.6 –1,000 µg/mL) were used. Similar concentrations of ascorbic acid were used as positive control. A total of 30 µL DPPH (3.14 X 10^−3 µM) was added to each well, then the plate was allowed to stand in the dark at 25 °C for 30 min, and the absorbance was later recorded taken at 517 nm. The free radical scavenging activity was calculated using the following equation: Free radical scavenging activity%=Abs of DPPH−Abs of sample∕Abs of DPPH×100%. where Abs is absorbance. The relationship between each concentration and its scavenging percentage was plotted, and the IC50 value was calculated by interpolation. Scavenging activity was represented by IC50 values (the extract concentration that scavenges 50% of DPPH radicals).
On the technique in general: The DPPH test is a chemical assay of radical scavenging.

Data set [3] deals with human promyelocytic leukaemia (HL-60). Nature of the data set: MTT cytotoxicity assay, HL-60. The format is cell-based. The source says: (§1) In vitro cytotoxic potency of the investigated extracts was established using the colorimetric (MTT) assay. The three cancer cell lines involved were the human breast adenocarcinoma (MCF-7), murine myelomonocytic leukaemia (WEHI-3) and human promyelocytic leukaemia (HL-60). The three normal cell lines used were the human mammary epithelial cell line (MCF10A), primary dermal fibroblasts cell line (HDFa) and the human hepatic cell line (WRL-68). All cells were from American Type Culture Collection (ATCC) and were subcultured in tissue culture flask (75 cm) with RPMI1640 media mixed with 10% fetal bovine serum and 1% penicillin–streptomycin and kept in an incubator at 5% of CO2 saturation and 37 °C. The following solutions were prepared: crude extracts (dissolved in 1% DMSO) at various concentrations (100, 50, 25, 12.5, 6.3, 3.5, 1.5 and 0 µg/mL); and peperomin A, phytosterol mixture and standard drugs (Taxol and vinblastine) as positive controls at decreasing concentrations (50, 25, 12.5, 6.3, 3.5, 1.5, and 0 µg/mL). N,N′-diphenethyloxamide was not involved in the biological assay because of the low yield obtained. Extracts were incubated with the cancer cell lines for 72 h, and peperomin A and the phytosterol mixture were incubated for 24, 48 and 72 h. After the incubation periods, 20 µL of MTT solution (5 mg/mL) was added to each well and incubated for 4 h. To dissolve the formazan crystals formed, 100 µL of DMSO was added to each well. The IC50 values were calculated from the plot of cancer cell growth versus the concentration of extracts/compounds.
(Formazan colour is commonly taken as a measure of viable cells.)

For data set [4], the system named is human breast adenocarcinoma (MCF-7). Nature of the data set: MTT cytotoxicity assay, MCF-7. The format is cell-based. As to conditions: for IC50: Homo sapiens; for Selectivity index: ratio of mean IC50 in normal MCF10a over mean IC50 in MCF-7: Table 4.
Excerpt: as §1

Data set [5] relates to primary dermal fibroblasts cell line (HDFa). Nature of the data set: MTT cytotoxicity assay, normal HDFa. Type of data set: cell-based. As to conditions: Homo sapiens, normal cells.
Excerpt: as §1

For data set [6], the system named is human hepatic cell line (WRL-68). As to the kind of experiment: MTT cytotoxicity assay, normal WRL-68. The settings on record: normal cells. The format is cell-based.
Excerpt: as §1

In data set [7] the test system is murine myelomonocytic leukaemia (WEHI-3). Nature of the data set: MTT cytotoxicity assay, WEHI-3. The format is cell-based. The settings on record: Mus musculus.
Excerpt: as §1

The subject of data set [8] is human mammary epithelial cell line (MCF10A). Nature of the data set: MTT cytotoxicity assay, normal MCF10A. Type of data set: cell-based. As to conditions: MCF-10A, normal cells.
Excerpt: as §1

A further data set deals with C8166 cell line. The settings on record: no reference given; cited from earlier work.
For another data set, the system named is HIV-1 IIIB. As to conditions: no reference given; cited from earlier work.

The IC50 is the concentration that inhibits the measured activity by half.

≈ marks a conversion by molar mass, not a printed value.

Consider `Cc1cc(C(C)(C)C)c(O)c(C(C)(C)C)c1` [BHT, butylated hydroxytoluene], for which the FRAP in [1] is given as 1738.80 ± 9.53 M Fe(II)/g. Further, the “DPPH IC50” value in [2] turned out to be 286.64 ± 8.54 µg/mL.
`CC(=O)O[C@H]1C(=O)[C@@]2(C)[C@H]([C@H](OC(=O)c3ccccc3)[C@]3(O)C[C@H](OC(=O)[C@H](O)[C@@H](NC(=O)c4ccccc4)c4ccccc4)C(C)=C1C3(C)C)[C@]1(OC(C)=O)CO[C@@H]1C[C@@H]2O` [Paclitaxel]: the IC50 in data set [3] (HL-60, 24 h, 24 hr) was found to be 12.7 ± 0.4 µg/mL (≈ 14.9 µM); in data set [3] (HL-60, 48 h, 48hr) it was 8.67 ± 0.76 µg/mL (≈ 10.2 µM); in data set [3] (HL-60, 72 h, 72hr) it was 5.13 ± 0.32 µg/mL (≈ 6.01 µM); in [4] (MCF7, 24 h, 24 hr), 5.87 ± 0.19 µg/mL (≈ 6.87 µM); in data set [4] (MCF7, 48 h, 48hr), 4.47 ± 0.03 µg/mL (≈ 5.23 µM); in data set [4] (MCF7, 72 h, 72hr), 3.56 ± 0.34 µg/mL (≈ 4.17 µM). For the same molecule, the IC50 is 3 ± 0.07 µg/mL (≈ 3.51 µM) in [4] (MCF7, 72 h, 72 hr, Table 3); over 50 µg/mL in data set [5] (24 hr); over 50 µg/mL in [5] (48hr); over 50 µg/mL in data set [5] (72hr); over 50 µg/mL in [6] (WRL68, 24 hr); over 50 µg/mL in data set [6] (WRL68, 48hr). The half-inhibitory concentration (IC50) in data set [6] (WRL68, 72hr) was over 50 µg/mL; in data set [7] (24 hr) it was 3.16 ± 0.02 µg/mL (≈ 3.7 µM); in [7] (48hr), 2.15 ± 0.02 µg/mL (≈ 2.52 µM); in [7] (72hr), 1.9 ± 0.9 µg/mL (≈ 2.23 µM); in data set [8] (24 hr) it was over 50 µg/mL; in [8] (48hr), over 50 µg/mL. The molecule further yielded an IC50 in data set [8] (72hr) of over 50 µg/mL.
In the case of `COc1cc(C(c2cc(OC)c3c(c2)OCO3)[C@@H]2COC(=O)[C@H]2C)cc2c1OCO2` [Peperomin A], the concentration for half-maximal inhibition (IC50) in [3] (HL-60, 24 h, 24 hr) was found to be 43.62 ± 0.1 µg/mL (≈ 105 µM); in [3] (HL-60, 48 h, 48hr), 26.34 ± 0.26 µg/mL (≈ 63.6 µM); in [3] (HL-60, 72 h, 72hr) it was 16.4 ± 0.62 µg/mL (≈ 39.5 µM); in [4] (MCF7, 24 h, 24 hr), 40.7 ± 0.92 µg/mL (≈ 98.3 µM); in data set [4] (MCF7, 48 h, 48hr) it was 9.22 ± 0.28 µg/mL (≈ 22.2 µM); in [4] (MCF7, 72 h, 72hr), 5.58 ± 0.47 µg/mL (≈ 13.5 µM). Moreover, the IC50 in [5] (24 hr) was over 50 µg/mL; in [5] (48hr) it was over 50 µg/mL; in [5] (72hr), over 50 µg/mL; in data set [6] (WRL68, 24 hr), over 50 µg/mL; in data set [6] (WRL68, 48hr), over 50 µg/mL; in data set [6] (WRL68, 72hr), 41.5 ± 0.54 µg/mL (≈ 100 µM). Further, the half-inhibitory concentration (IC50) is 20.1 ± 0.46 µg/mL (≈ 48.5 µM) in data set [7] (24 hr); 18.7 ± 0.73 µg/mL (≈ 45.1 µM) in data set [7] (48hr); 4.62 ± 0.03 µg/mL (≈ 11.1 µM) in data set [7] (72hr); over 50 µg/mL in [8] (24 hr); over 50 µg/mL in data set [8] (48hr); over 50 µg/mL in data set [8] (72hr). The “selectivity index values for cancer cells” value in data set [4] is reported as “greater than 1”. The “Selectivity index: ratio of mean IC50 in normal MCF10a over mean IC50 in MCF-7” value is 1.1 in [4] (24 hr), 1.3 in [4] (48hr) and 7.4 in data set [4] (72hr). For the same molecule, the “cytotoxic activity against the C8166 cell line” value in the data set with C8166 cell line was “cytotoxic activity”. Moreover, the “inhibitory effects on HIV-1 IIIB growth in C8166 cells (cytopathic effect, CPE)” value in the data set on HIV-1 IIIB is “moderate inhibitory effects”. The “ferric reducing power (in words)” value in data set [1] is given as “weak”. Further, the FRAP in data set [1] is given as 20.79 ± 0.66 M Fe(II)/g. In addition, the “free radical scavenging activity (in words)” value in [2] is “weak”. Moreover, in data set [2], the “DPPH IC50” value is listed as 536.61 ± 6.00 µg/mL.
`O=C1O[C@H]([C@@H](O)CO)C(O)=C1O` [VIT C, ascorbic acid]: the FRAP in [1] is 2603.90 ± 10.54 M Fe(II)/g. In addition, the “DPPH IC50” value in data set [2] is 20.40 ± 0.50 µg/mL.
In the case of `CC[C@]1(O)C[C@@H]2CN(CCc3c([nH]c4ccccc34)[C@@](C(=O)OC)(c3cc4c(cc3OC)N(C)[C@H]3[C@@](O)(C(=O)OC)[C@H](OC(C)=O)[C@]5(CC)C=CCN6CC[C@]43[C@@H]65)C2)C1` [Vinblastine], the half-inhibitory concentration (IC50) worked out at 5.91 ± 0.31 µg/mL (≈ 7.29 µM) in [3] (HL-60, 24 h, 24 hr); 4.81 ± 0.19 µg/mL (≈ 5.93 µM) in data set [3] (HL-60, 48 h, 48hr); 2.36 ± 0.08 µg/mL (≈ 2.91 µM) in [3] (HL-60, 72 h, 72hr); 5 ± 0.01 µg/mL (≈ 6.17 µM) in data set [3] (HL-60, 72 h, 72 hr, Table 3); 14.6 ± 0.16 µg/mL (≈ 18 µM) in data set [4] (MCF7, 24 h, 24 hr); 7.57 ± 0.5 µg/mL (≈ 9.33 µM) in data set [4] (MCF7, 48 h, 48hr). For the same molecule, the half-maximal inhibitory concentration (IC50) in [4] (MCF7, 72 h, 72hr) is 5.16 ± 0.42 µg/mL (≈ 6.36 µM); in data set [5] (24 hr), over 50 µg/mL; in data set [5] (48hr) it was over 50 µg/mL; in data set [5] (72hr) it was over 50 µg/mL; in [6] (WRL68, 24 hr), over 50 µg/mL; in data set [6] (WRL68, 48hr), over 50 µg/mL. For the same molecule, the half-inhibitory concentration (IC50) in data set [6] (WRL68, 72hr) was over 50 µg/mL; in data set [7] (24 hr), 4.11 ± 0.06 µg/mL (≈ 5.07 µM); in data set [7] (48hr) it was 3.56 ± 0.07 µg/mL (≈ 4.39 µM); in [7] (72 hr, Table 3) it was 0.57 ± 0.035 µg/mL (≈ 0.703 µM); in [8] (24 hr), over 50 µg/mL; in [8] (48hr), over 50 µg/mL. Also, the 50% inhibitory concentration (IC50) in [8] (72hr) is over 50 µg/mL.
In the case of `COc1cc([C@@H](c2cc(OC)c3c(c2)OCO3)[C@@H]2COC(=O)[C@H]2C)cc(OC)c1OC` [peperomin B], the “cytotoxic activity against the C8166 cell line” value in the data set with C8166 cell line was “cytotoxic activity”. The “inhibitory effects on HIV-1 IIIB growth in C8166 cells (cytopathic effect, CPE)” value in the data set with HIV-1 IIIB was “moderate inhibitory effects”.
